In patent publication US20200110072A1, “IMAGING METHODS TO ASSESS THE EFFICACY OF ANTICANCER DRUGS IN VITRO USING SPONTANEOUSLY-FORMING SPHEROIDS” (ROWAN UNIVERSITY, priority 2016, published 2020):
pIC50: −log10 of the molar value. “Also recorded” adds a separate entry of the source.

Key:
spheroids^MARY-X [1] = test: Spheroids^MARY-X drug screen: bright-field image analysis of spheroid dissolution (dissolution indices); format: cell-based, human; details: for Response (deviation from well-circumscribed spheroid edge / spheroid dissolution): increasing doses, bright-field images
Protocol: In particular, the invention provides novel methods for determining drug response and calculating drug potency. In drug screens according to the invention spheroids or spheroids^MARY-X are seeded in multi-well plates, treated with vehicle only (control) and increasing doses of one or more drugs of interest. Following a 24-hr treatment period each well undergoes analysis to assess dissolution of the spheroids^MARY-X (see FIGS. 4A and 4B).
In exemplary embodiments the dissolution index is determined by applying an image analysis program on ImageJ that measures the circularity of an object's area and perimeter where ‘1’ signifies a perfect circle (i.e. intact spheroid) and numbers approaching ‘0’ signify loss of circularity (i.e. dissolute spheroid). Note that ‘0’ signifies a straight line and can never be achieved in image analysis of spheroids given the innate circularity of individual cells (see FIG. 4A). The induction of apoptosis correlates with the loss of well-circumscribed edges of the usually tight, compact spheroids, i.e. dissolution is consistent with cell death of the spheroid/embolus.
Spheroids^MARY-X Dissolution Indices: The spheroid dissolution index was determined by applying an image analysis program on ImageJ that measures the circularity of an object's area and perimeter where ‘1’ signifies a perfect circle (i.e. intact spheroid) and numbers approaching ‘0’ signify loss of circularity (i.e. dissolute spheroid). Note that ‘0’ signifies a straight line and can never be achieved in image analysis of spheroids given the innate circularity of individual cells.
Drug Screen: The 40-100 μm spheroids were distributed in equal number (˜30-50 spheroids/well) to a multi-well plate. The spheroids^MARY-X was treated with vehicle only (DMSO) and increasing doses of drug of interest in each 24-well plate. Following 24 hr treatment periods each well was imaged and analyzed with ImageJ for measurement of dissolution of the spheroids^MARY-X. The induction of apoptosis is correlated with the loss of the well circumscribed edges of the usually tight, compact spheroids^MARY-X i.e. dissolution is consistent with cell death of the spheroid/embolus.

spheroids^MARY-X [2] = test: Spheroids^MARY-X dual-fluorescence viability assay (acridine orange / propidium iodide, Cellometer K2); format: cell-based, human; details: 24-hour treatment; for Response in dual fluorescence viability assay: AO/PI staining; for pIC50: Homo sapiens, AO/PI, read-out: IC50 from dose-response curve, dual fluorescence viability assay
Protocol: Spheroids^MARY-X Viability Assay: Dual-fluorescent assays were performed on a Cellometer K2 (Nexcelom Biosciences, Lawrence, Mass.) using the viability stains, acridine orange and propium iodide.
Dissolution indices vs. standard viability assay: In an effort to validate response data acquired by image analysis (i.e. dissolution indices) an alternate method, traditionally used to determine and quantify cell viability, and was performed on a replicate drug screen. This drug screen reproduced drug dose parameters of paclitaxel (PTX), gambogic acid (GA) and MAD28. Viability was measured by dual fluorescence analysis of propidium iodide (PI) and acridine orange (AO). Following the 24-hour treatment period, spheroids^MARY-X were analyzed using the Cellometer K2 in the dual-fluorescence viability assay. The nuclear stains AO and PI were added to the control (vehicle only) and treated spheroids^MARY-X, where AO stains both live and dead (green) cells and PI stains only dead (orange) cells with compromised membranes. Fluorescent images presented here are one of eight random fields captured for the viability analyses.

[3] = test system: triple-negative breast cancer 2-D culture models; details: preclinical analysis; cited from earlier work

**Q.** Which “Response (deviation from well-circumscribed spheroid edge / spheroid dissolution)” value (spheroids^MARY-X [1]; 24-hour treatment) does the source give for `CC(C)=CCC[C@]1(C)C=Cc2c(O)c3c(c(CC=C(C)C)c2O1)O[C@]12C(=C[C@@H]4C[C@H]1C(C)(C)O[C@@]2(C/C=C(/C)C(=O)O)C4=O)C3=O` [Gambogic acid] here?
**A.** The value was “complete”.

**Q.** What about the pIC50 (spheroids^MARY-X [1]; Homo sapiens, as printed in b33 for gambogic acid, read-out: IC50, spheroidal dissolution and apoptosis) of the same compound?
**A.** Its pIC50 is 6.27.

**Q.** And the pIC50 (spheroids^MARY-X [1]; Homo sapiens, read-out: IC50 from dissolution indices)?
**A.** The pIC50 was 6.27.

**Q.** And the “Response (spheroid dissolution)” value (spheroids^MARY-X [1]; at 2.5 μM concentration (MAD44: similar concentrations))?
**A.** The value was “complete spheroid dissolution”.

**Q.** What about the “Response in dual fluorescence viability assay” value (spheroids^MARY-X [2]) of the same compound?
**A.** The value was “complete”.

**Q.** And the “Response in dual fluorescence viability assay” value (spheroids^MARY-X [2]; listed as GA)?
**A.** The value was “complete response”.

**Q.** What about the pIC50 (spheroids^MARY-X [2]) of the same compound?
**A.** The pIC50 was 5.92.

**Q.** With `COc1cccc2c1C(=O)c1c(O)c3c(c(O)c1C2=O)C[C@@](O)(C(=O)CO)C[C@@H]3O[C@H]1C[C@H](N)[C@H](O)[C@H](C)O1` [Doxorubicin, doxorubicin] as the compound, how does the “Response (deviation from well-circumscribed spheroid edge / spheroid dissolution)” value (spheroids^MARY-X [1]; 24-hour treatment) read?
**A.** Its value is “mixed response”.

**Q.** And the “Response (deviation from well-circumscribed spheroid edge / spheroid dissolution)” value (spheroids^MARY-X [1]; 24-hour treatment, listed as Doxorubicin (DOX))?
**A.** The value was “Moderate - Complete”.

**Q.** For `CN(Cc1cnc2nc(N)nc(N)c2n1)c1ccc(C(=O)N[C@@H](CCC(=O)O)C(=O)O)cc1` [Methotrexate, methotrexate], which “Response (deviation from well-circumscribed spheroid edge / spheroid dissolution)” value (spheroids^MARY-X [1]; 24-hour treatment) is on record?
**A.** The value was “no response and No”.

**Q.** What about the “Response (deviation from well-circumscribed spheroid edge / spheroid dissolution)” value (spheroids^MARY-X [1]; 24-hour treatment, listed as methotrexate) of the same compound?
**A.** The value was “no drug response”.

**Q.** With `CC(C)NCCCn1c(Sc2cc3c(cc2I)OCO3)nc2c(N)ncnc21` [PU-H71] as the compound, how does the “Response (deviation from well-circumscribed spheroid edge / spheroid dissolution)” value (spheroids^MARY-X [1]; 24-hour treatment) read?
**A.** The value was “no response”.

**Q.** What about the Response [3] of the same compound?
**A.** The Response was “complete response”.

**Q.** What does the source list for `CS(=O)(=O)CCNCc1ccc(-c2ccc3ncnc(Nc4ccc(OCc5cccc(F)c5)c(Cl)c4)c3c2)o1` [Lapatinib, lapatinib]?
**A.** Response (deviation from well-circumscribed spheroid edge / spheroid dissolution) (spheroids^MARY-X [1]; 24-hour treatment): Low - Moderate; Response (deviation from well-circumscribed spheroid edge / spheroid dissolution) (spheroids^MARY-X [1]; 24-hour treatment, listed as lapatinib): Low to moderate; also recorded: slight response; also recorded: low response

**Q.** Which “Response (deviation from well-circumscribed spheroid edge / spheroid dissolution)” value (spheroids^MARY-X [1]; 24-hour treatment) does the source give for `N.N.[Cl][Pt][Cl]` [Cisplatin, cisplatin] here?
**A.** The value was “No”.

**Q.** What about the “Response (deviation from well-circumscribed spheroid edge / spheroid dissolution)” value (spheroids^MARY-X [1]; 24-hour treatment, listed as cisplatin) of the same compound?
**A.** Its value is “no drug response”.

**Q.** For `CC(=O)O[C@H]1C(=O)[C@@]2(C)[C@H]([C@H](OC(=O)c3ccccc3)[C@]3(O)C[C@H](OC(=O)[C@H](O)[C@@H](NC(=O)c4ccccc4)c4ccccc4)C(C)=C1C3(C)C)[C@]1(OC(C)=O)CO[C@@H]1C[C@@H]2O` [Paclitaxel, paclitaxel], which “Response (deviation from well-circumscribed spheroid edge / spheroid dissolution)” value (spheroids^MARY-X [1]; 24-hour treatment) is on record?
**A.** Its value is “virtually ineffective”.

**Q.** And the pIC50 (spheroids^MARY-X [1]; 24-hour treatment, ImageJ circularity, read-out: IC50 from dissolution indices dose-response curve)?
**A.** Its pIC50 is 5.11.

**Q.** And the pIC50 (spheroids^MARY-X [1]; Homo sapiens, 24 h, 24-hour treatment, ImageJ circularity, read-out: IC50 from dissolution indices dose-response curve)?
**A.** Its pIC50 is 5.11.

**Q.** And the Response (spheroids^MARY-X [1]; at a 5.0 μM concentration)?
**A.** Its Response is “no to low”.

**Q.** What about the “Response in dual fluorescence viability assay” value (spheroids^MARY-X [2]) of the same compound?
**A.** Its value is “ineffective at producing a ‘complete’ response”.

**Q.** And the “Response in dual fluorescence viability assay” value (spheroids^MARY-X [2]; listed as PTX)?
**A.** The value was “little if any activity”.

**Q.** What about the pIC50 (spheroids^MARY-X [2]) of the same compound?
**A.** Its pIC50 is 5.27.

**Q.** Which “Response (deviation from well-circumscribed spheroid edge / spheroid dissolution)” value (spheroids^MARY-X [1]; 24-hour treatment) does the source give for `CC(C)C[C@H](NC(=O)[C@H](Cc1ccccc1)NC(=O)c1cnccn1)B(O)O` [Bortezomib, bortezomib] here?
**A.** The value was “Low - Moderate”.

**Q.** And the “Response (deviation from well-circumscribed spheroid edge / spheroid dissolution)” value (spheroids^MARY-X [1]; 24-hour treatment, listed as bortexomib)?
**A.** Its value is “Low to moderate”.

**Q.** And the “Response (deviation from well-circumscribed spheroid edge / spheroid dissolution)” value (spheroids^MARY-X [1]; 24-hour treatment, listed as bortezomab)?
**A.** The value was “slight response”.

**Q.** What about the “Response (deviation from well-circumscribed spheroid edge / spheroid dissolution)” value (spheroids^MARY-X [1]; 24-hour treatment, listed as bortezomib) of the same compound?
**A.** Its value is “slight response; also recorded: low response”.
